From US11407796B2, “Antisecretory factor 17” (LANTMÄNNEN AS-FAKTOR AB, priority 2016, dated 2022)
Like-named read-outs stand apart in the source and are kept apart here. Ends that are not written are not given here. Peptide text beside a SMILES is read from it. * marks the point of attachment. Succinimide(1-Et,3-yl) = CCN1C(=O)CC(*)C1=O

Experiments:
[1] = tested on: Caco-2 cells; assay: AF16 stability and metabolite formation with Caco-2 cells; assay type: in vitro ADME
Experimental: (§1) Investigation of the fate of AF16 in the presence of Caco-2 cells was performed on three separate occasions. Firstly, a quantitative measurement was performed using MRM methodology (table 1) over 0, 15, 30 and 60 min. Here, AF16 or its possible sulfonic acid metabolite was monitored both in the apical and in the basolateral compartment (not shown). The second experiment was a qualitative determination of the fate of AF16 during a 60 min incubation. 50 μM AF16 in HBSS buffer was incubated at the apical side of the Caco-2 cell monolayer and 100 μl aliquots was extracted at 5, 10, 20, 30 and 60 min. The sample was placed on a 96-well plate containing 100 μl MeCN/H2O. The plate was sealed and frozen until full-scan UPLC-MS analysis (see below and table 2). The third experiment was a mirror of the second and the only difference was that a HBSS solution of AF16:AF16 IS (1:1) was used, to aid in the structure elucidation.
(§2) All samples from the different assays were analyzed by UPLC-MS/MS. The following system was used, a Waters XEVO TQ triple-quadrupole mass spectrometer (electrospray ionization, ESI) coupled to a Waters Acquity UPLC (VVaters Corp.). For chromatographic separation a general gradient was used (1% mobile phase B to 50% over 3 min total run) on a C18 BEH 1.7 μm column 2×100 mm (VVaters Corp.). Mobile phase A consisted of 0.05% TFA and mobile phase B 100% acetonitrile. The flow rate was 0.5 ml/min. In the full-scan MS analysis the same chromatographic settings was used except that 10 μl was injected (full loop). The MS was set to scan for ions in the 100-400 or 400-700 m/z window using the cone voltage in table 1.
(§3) It is well known that in the intestine, and as such at the apical side of Caco-2 cells, brush-border peptidases exist. To further investigate this, a separate experiment was designed. Caco-2 cells were exposed at the apical side to 50 μM AF16, with or without a protease inhibitor cocktail, and were sampled over 1 h.

[2] = as above; assay type: in vitro ADME; details: Caco-2, 50 μM, apical side of Caco-2 cells
Experimental: as §1, §2, §3

[3] = AF16 and AF16-NEM stability in human plasma; assay type: in vitro ADME; details: for half-life: 37° C.
Experimental: Test of AF16 and AF16-NEM stability in plasma was performed using pooled human plasma (4 donors, two female+two male) in HPLC glass vials at 37° C. (20 μM incubation conc.). Four different matrices were tested: Plasma: isotonic 67 mM potassium phosphate pH 7.4 (KP) (1:1), plasma:KP+0.1 mM DTT, KP and KP+0.1 mM DTT. Incubation times were 0, 1.5 and 3 h. At the indicated times a 50 μl aliquot was extracted and quenched/precipitated in 150 μl ice-cold methanol and frozen until analysis. Relative quantification was performed UPLC-MS/MS.
AF16, the stable isotope labeled (SIL) AF16 and the alkylated analog AF16-NEM were incubated at 1 μM in human plasma: 0.1M potassium phosphate pH 7.4 (KP) (1:1), human plasma: KP (1:1)+1 mM DTT, KP or KP+1 mM DTT over 3 h at 37° C. to investigate stability. KP was included to provide buffer capacity to the plasma and to not confuse the results with pH related effects.

[4] = AF16 metabolite identification in rat plasma; assay type: in vitro ADME
Experimental: (§4) (10 μM incubation conc.).
(§5) The flow rate was 0.5 ml/min.
(§6) AF16 and the isotopically labelled peptide in similar quantity were incubated in plasma of rat and human as described above. For analysis of full scan MS data, the metabolite identification software from Sciex, Lightsight, was used, which compares the incubated MS response to the quality control (QC) sample and assigns apparent peaks as metabolites with specific mass over charge (m/z) values. The software is currently not optimal to use with multi-charged compounds such as peptides so the hit-rate of metabolite detection is fairly high and manual assessment of each found peak had to be performed. The largest metabolite peak areas were then rank ordered and in some cases verified by MS/MS fragmentation. Skyline methodology was used to predict fragmentation of the identified peptides, but also aided in creating sensitive MRM methods so that low amounts could be monitored.

[5] = plasma
[6] = AF16 metabolite identification in human plasma; assay type: in vitro ADME
Experimental: as §4, §5, §6

[7] = Kinetics of AF16 and metabolites in plasma with ZnSO4 precipitant +/-DTT; assay type: in vitro ADME, human, rat; details: plasma precipitated with ZnSO4, +/−DTT
Source text: The kinetics shown in FIG. 13 was surprising given the fact that DTT was used in the quenching solution with TCA, although it is likely that the reducing capability of DTT is lowered in acidic conditions. It was therefore tested if the same pattern occurred when using a neutral precipitant ZnSO4 (without NaOH). This precipitation method is not as efficient but would hopefully give more information on the formation of the major disulfide products.

[8] = 30 min incubation of AF16, (+) inhibitor cocktail
[9] = 30 min incubation of AF16, (−) inhibitor cocktail
[10] = 60 min incubation of AF16, (+) inhibitor cocktail
[11] = 60 min incubation of AF16, (−) inhibitor cocktail
[12] = human plasma:KP (1:1) + DTT, read-out: in vitro half-life (t½) with DTT (converted)
[13] = human plasma:KP pH 7.4 (1:1), no DTT, read-out: in vitro half-life (t½) (converted)

Question: With `CC(C)C[C@H](NC(=O)CNC(=O)[C@@H](NC(=O)[C@H](CC(N)=O)NC(=O)[C@H](CC(N)=O)NC(=O)[C@H](CCC(=O)O)NC(=O)[C@@H]1CCCN1C(=O)[C@H](CC(N)=O)NC(=O)[C@H](CO)NC(=O)[C@H](CCCNC(=N)N)NC(=O)[C@@H](NC(=O)[C@H](CCCCN)NC(=O)[C@H](CO)NC(=O)[C@H](Cc1c[nH]cn1)NC(=O)[C@H](CS)NC(=O)[C@@H](N)C(C)C)[C@@H](C)O)C(C)C)C(=O)O` [AF16, VCHSKTRSNPENNVGL] (H-VCHSKTRSNPENNVGL-OH; N-terminus and C-terminus assumed) as the compound, how does the “t½ of degradation with inhibitor cocktail” value ([1]; 50 μM, apical side of Caco-2 cells, with protease inhibitor cocktail (Bestatin, Diprotin A, Captopril)) read?
Answer: 55 min

Question: And the “Tentative amounts (%) of molecular species” value (“Tentative amounts (%)” below) [1, 8]?
Answer: 79%

Question: And the “Tentative amounts (%)” value [1, 9]?
Answer: 6%

Question: What about the “Tentative amounts (%)” value [1, 10] of the same compound?
Answer: 63%

Question: And the “Tentative amounts (%)” value [1, 11]?
Answer: 1%

Question: And the half-life ([2]; with protease inhibitor cocktail (Bestatin, Diprotin A, Captopril), read-out: t½ of degradation with inhibitor cocktail)?
Answer: 57 min

Question: And the half-life ([2]; without inhibitor cocktail, read-out: t½ of degradation)?
Answer: 8 min

Question: What about the half-life [3, 12] of the same compound?
Answer: 66 min

Question: What about the half-life [3, 13] of the same compound?
Answer: 24 min

Question: What about the “% of QC area at 30 min incubation time” value [4] of the same compound?
Answer: 4%

Question: What about the half-life [5] of the same compound?
Answer: ≤ 10 min

Question: What about the “% of QC area at 30 min incubation time” value [6] of the same compound?
Answer: 1%

Question: With `CCN1C(=O)CC(SC[C@H](NC(=O)[C@@H](N)C(C)C)C(=O)N[C@@H](Cc2c[nH]cn2)C(=O)N[C@@H](CO)C(=O)N[C@@H](CCCCN)C(=O)N[C@H](C(=O)N[C@@H](CCCNC(=N)N)C(=O)N[C@@H](CO)C(=O)N[C@@H](CC(N)=O)C(=O)N2CCC[C@H]2C(=O)N[C@@H](CCC(=O)O)C(=O)N[C@@H](CC(N)=O)C(=O)N[C@@H](CC(N)=O)C(=O)N[C@H](C(=O)NCC(=O)N[C@@H](CC(C)C)C(=O)O)C(C)C)[C@@H](C)O)C1=O` (stereo partly shown) [AF16-NEM] (H-VC(Succinimide(1-Et,3-yl))HSKTRSNPENNVGL-OH; N-terminus and C-terminus assumed) as the compound, how does the “fold higher stability than AF16” value ([3]; human plasma, no DTT) read?
Answer: ~5 fold

Question: What about the half-life [3, 12] of the same compound?
Answer: 252 min

Question: What about the half-life [3, 13] of the same compound?
Answer: 108 min

Question: For `CC(C)C[C@H](NC(=O)CNC(=O)[C@@H](NC(=O)[C@H](CC(N)=O)NC(=O)[C@H](CC(N)=O)NC(=O)[C@H](CCC(=O)O)NC(=O)[C@@H]1CCCN1C(=O)[C@H](CC(N)=O)NC(=O)[C@H](CO)NC(=O)[C@H](CCCNC(=N)N)NC(=O)[C@@H](NC(=O)[C@H](CCCCN)NC(=O)[C@H](CO)NC(=O)[C@@H](N)Cc1c[nH]cn1)[C@@H](C)O)C(C)C)C(=O)O` [M3, HSK TRSNP ENNVG L] (H-HSKTRSNPENNVGL-OH; N-terminus and C-terminus assumed), which “Tentative amounts (%)” value [1, 8] is on record?
Answer: 2%

Question: What about the “Tentative amounts (%)” value [1, 9] of the same compound?
Answer: 38%

Question: What about the “Tentative amounts (%)” value [1, 10] of the same compound?
Answer: 4%

Question: What about the “Tentative amounts (%)” value [1, 11] of the same compound?
Answer: 24%

Question: What about the “% of QC area at 30 min incubation time” value [4] of the same compound?
Answer: 0.4%

Question: And the “% of QC area at 30 min incubation time” value [6]?
Answer: 0.9%

Question: For “C[SCC]HSKTRSNPENNVGL (not fully specified (N-terminus); printed as C[SCC]HSKTRSNPENNVGL; also: [SCC] on the N-terminal Cys, meaning not given here) [M10]”, which “resilience of the disulfide against DTT reduction” value [7] is on record?
Answer: resilient
